In PubChem BioAssay AID1918998 (Molecular Pharmacology Branch, DTP, NCI, 2023):

Test system: 521955-158-R2-J5-PDC complex spheroid growth
Assay: Anticancer human tumor 521955-158-R2-J5-PDC patient-derived pancreatic carcinoma cell line growth inhibition [AhR]
Details: for IC50: curve of first compound; for viability, T/C: stronger effect = lower value
Procedure, shortened: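 Complex tumor spheroids co-cultured with HUVEC and human MSC stroma; AhR antagonists tested in combination with standard-of-care and investigational agents. Top concentration at or near clinical Cmax (else 10 microM), half-log dilutions; growth expressed as percent test/control.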

[1] = second compound 0.1 µM, first compound 0.0316 µM
[2] = second compound 0.1 µM, first compound 0.1 µM
[3] = second compound 0.1 µM, first compound 0.316 µM
[4] = second compound 0.1 µM, first compound 1 µM
[5] = second compound 0.1 µM, first compound 3.16 µM
[6] = second compound 0.1 µM, first compound 10 µM
[7] = second compound 0.316 µM, first compound 0.0316 µM
[8] = second compound 0.316 µM, first compound 0.1 µM
[9] = second compound 0.316 µM, first compound 0.316 µM
[10] = second compound 0.316 µM, first compound 1 µM
[11] = second compound 0.316 µM, first compound 3.16 µM
[12] = second compound 0.316 µM, first compound 10 µM
[13] = second compound 1 µM, first compound 0.0316 µM
[14] = second compound 1 µM, first compound 0.1 µM
[15] = second compound 1 µM, first compound 0.316 µM
[16] = second compound 1 µM, first compound 1 µM
[17] = second compound 1 µM, first compound 3.16 µM
[18] = second compound 1 µM, first compound 10 µM
[19] = second compound 3.16 µM, first compound 0.0316 µM
[20] = second compound 3.16 µM, first compound 0.1 µM
[21] = second compound 3.16 µM, first compound 0.316 µM
[22] = second compound 3.16 µM, first compound 1 µM
[23] = second compound 3.16 µM, first compound 3.16 µM
[24] = second compound 3.16 µM, first compound 10 µM
[25] = second compound 10 µM, first compound 0.0316 µM
[26] = second compound 10 µM, first compound 0.1 µM
[27] = second compound 10 µM, first compound 0.316 µM
[28] = second compound 10 µM, first compound 1 µM
[29] = second compound 10 µM, first compound 3.16 µM
[30] = second compound 10 µM, first compound 10 µM
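For viability, T/C in this document: spheroids mix tumor cells with HUVEC endothelium and human MSC stroma; luminescence taken as viability surrogate after a week of drug exposure.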

`COc1cc(Nc2ncc3c(n2)-c2ccc(Cl)cc2C(c2c(F)cccc2OC)=NC3)ccc1C(=O)O` + CC(CO)NC(=O)c1cc(-c2ccc(Cl)cc2)nn(-c2cnn(C)c2)c1=O was tested, and the IC50 (second compound 0.1 µM) was > 10000 nM, the IC50 (second compound 0.316 µM) was > 10000 nM and the IC50 (second compound 1 µM) was > 10000 nM. For the same molecule, the IC50 (second compound 3.16 µM) was 2660 nM, the IC50 (second compound 10 µM) was 1180 nM and the viability, T/C [1] was 99.5%. It also gave a viability, T/C [2] of 78.4%, a viability, T/C [3] of 68.2% and a viability, T/C [4] of 61.9%. For the same molecule, the viability, T/C [5] was 65.3%, the viability, T/C [6] was 50% and the viability, T/C [7] was 91.3%. The viability, T/C [8] was 74.6%, the viability, T/C [9] was 71.9% and the viability, T/C [10] was 76.5%. It also gave a viability, T/C [11] of 55%, a viability, T/C [12] of 50.6% and a viability, T/C [13] of 59.5%. The viability, T/C [14] was 64.9%, the viability, T/C [15] was 69.2% and the viability, T/C [16] was 63.6%. The viability, T/C [17] was 48.6%, the viability, T/C [18] was 72.8% and the viability, T/C [19] was 84.3%. For the same molecule, the viability, T/C [20] was 69.5%, the viability, T/C [21] was 48% and the viability, T/C [22] was 65.4%. For the same molecule, the viability, T/C [23] was 47.7%, the viability, T/C [24] was 44.9% and the viability, T/C [25] was 62.2%. It also gave a viability, T/C [26] of 49.3%, a viability, T/C [27] of 62.4% and a viability, T/C [28] of 51.8%. For the same molecule, the viability, T/C [29] was 37.6% and the viability, T/C [30] was 35%.
In the case of `Cn1ncnc1C1c2n[nH]c(=O)c3cc(F)cc(c23)NC1c1ccc(F)cc1` (stereo not given) + CC(CO)NC(=O)c1cc(-c2ccc(Cl)cc2)nn(-c2cnn(C)c2)c1=O, the IC50 (second compound 0.1 µM) is reported as > 100 nM, the IC50 (second compound 0.316 µM) is reported as > 100 nM and the IC50 (second compound 1 µM) is reported as > 100 nM. For the same molecule, the IC50 (second compound 3.16 µM) was > 100 nM, the IC50 (second compound 10 µM) was > 100 nM and the viability, T/C (second compound 0.1 µM, first compound 0.000316 µM) was 99.2%. For the same molecule, the viability, T/C (second compound 0.1 µM, first compound 0.001 µM) was 112%, the viability, T/C (second compound 0.1 µM, first compound 0.00316 µM) was 116% and the viability, T/C (second compound 0.1 µM, first compound 0.01 µM) was 108%. The viability, T/C [1] was 105%, the viability, T/C [2] was 83% and the viability, T/C (second compound 0.316 µM, first compound 0.000316 µM) was 117%. The viability, T/C (second compound 0.316 µM, first compound 0.001 µM) was 107%, the viability, T/C (second compound 0.316 µM, first compound 0.00316 µM) was 120% and the viability, T/C (second compound 0.316 µM, first compound 0.01 µM) was 119%. It also gave a viability, T/C [7] of 74.1%, a viability, T/C [8] of 103% and a viability, T/C (second compound 1 µM, first compound 0.000316 µM) of 103%. It also gave a viability, T/C (second compound 1 µM, first compound 0.001 µM) of 134%, a viability, T/C (second compound 1 µM, first compound 0.00316 µM) of 112% and a viability, T/C (second compound 1 µM, first compound 0.01 µM) of 114%. For the same molecule, the viability, T/C [13] was 106%, the viability, T/C [14] was 100% and the viability, T/C (second compound 3.16 µM, first compound 0.000316 µM) was 118%. It also gave a viability, T/C (second compound 3.16 µM, first compound 0.001 µM) of 121%, a viability, T/C (second compound 3.16 µM, first compound 0.00316 µM) of 86.1% and a viability, T/C (second compound 3.16 µM, first compound 0.01 µM) of 89.3%. It also gave a viability, T/C [19] of 86.1%, a viability, T/C [20] of 78.5% and a viability, T/C (second compound 10 µM, first compound 0.000316 µM) of 104%. For the same molecule, the viability, T/C (second compound 10 µM, first compound 0.001 µM) was 100%, the viability, T/C (second compound 10 µM, first compound 0.00316 µM) was 99.7% and the viability, T/C (second compound 10 µM, first compound 0.01 µM) was 82.6%. The viability, T/C [25] was 60.1% and the viability, T/C [26] was 77.8%.
`NS(=O)(=O)OCC1CC(n2ccc3c(NC4CCc5ccccc54)ncnc32)CC1O` (stereo not given) + CC(CO)NC(=O)c1cc(-c2ccc(Cl)cc2)nn(-c2cnn(C)c2)c1=O gave an IC50 (second compound 0.1 µM) of 486 nM, an IC50 (second compound 0.316 µM) of 484 nM and an IC50 (second compound 1 µM) of 492 nM. For the same molecule, the IC50 (second compound 3.16 µM) was 371 nM, the IC50 (second compound 10 µM) was 232 nM and the viability, T/C [1] was 87.2%. For the same molecule, the viability, T/C [2] was 92.5%, the viability, T/C [3] was 61.7% and the viability, T/C [4] was 29.5%. It also gave a viability, T/C [5] of 20.6%, a viability, T/C [6] of 18.7% and a viability, T/C [7] of 93.1%. The viability, T/C [8] was 90.2%, the viability, T/C [9] was 61.1% and the viability, T/C [10] was 30.5%. The viability, T/C [11] was 19.5%, the viability, T/C [12] was 18.3% and the viability, T/C [13] was 90.5%. The viability, T/C [14] was 97.7%, the viability, T/C [15] was 62% and the viability, T/C [16] was 31%. The viability, T/C [17] was 21.6%, the viability, T/C [18] was 20.7% and the viability, T/C [19] was 85.5%. For the same molecule, the viability, T/C [20] was 83.1%, the viability, T/C [21] was 49.8% and the viability, T/C [22] was 31.3%. It also gave a viability, T/C [23] of 20.8%, a viability, T/C [24] of 14.7% and a viability, T/C [25] of 68.8%. For the same molecule, the viability, T/C [26] was 66%, the viability, T/C [27] was 41.6% and the viability, T/C [28] was 31.2%. For the same molecule, the viability, T/C [29] was 19.2% and the viability, T/C [30] was 15.2%.
Molecule `O=C(C=Cc1cccc(S(=O)(=O)Nc2ccccc2)c1)NO` + CC(CO)NC(=O)c1cc(-c2ccc(Cl)cc2)nn(-c2cnn(C)c2)c1=O has an IC50 (second compound 0.1 µM) of 4620 nM, an IC50 (second compound 0.316 µM) of 4890 nM and an IC50 (second compound 1 µM) of 3600 nM. For the same molecule, the IC50 (second compound 3.16 µM) was 5850 nM, the IC50 (second compound 10 µM) was 4590 nM and the viability, T/C [1] was 108%. For the same molecule, the viability, T/C [2] was 107%, the viability, T/C [3] was 122% and the viability, T/C [4] was 93.2%. For the same molecule, the viability, T/C [5] was 58.3%, the viability, T/C [6] was 35.5% and the viability, T/C [7] was 114%. The viability, T/C [8] was 135%, the viability, T/C [9] was 131% and the viability, T/C [10] was 91.2%. The viability, T/C [11] was 62.6%, the viability, T/C [12] was 35% and the viability, T/C [13] was 131%. For the same molecule, the viability, T/C [14] was 126%, the viability, T/C [15] was 120% and the viability, T/C [16] was 92.9%. For the same molecule, the viability, T/C [17] was 53.2%, the viability, T/C [18] was 26.5% and the viability, T/C [19] was 117%. It also gave a viability, T/C [20] of 101%, a viability, T/C [21] of 114% and a viability, T/C [22] of 98.1%. The viability, T/C [23] was 67.3%, the viability, T/C [24] was 35.1% and the viability, T/C [25] was 94.1%. It also gave a viability, T/C [26] of 90.6%, a viability, T/C [27] of 82.8% and a viability, T/C [28] of 86.2%. The viability, T/C [29] was 61.4% and the viability, T/C [30] was 25.1%.
